From US5663196A, “Methods for treating neoplastic disorders” (Boston University, priority 1993, dated 1997)

How the values were obtained:
[1] = system: C7 cloned T-cells; assay: 3H-Thymidine Incorporation, C7; assay type: cell-based; settings: Mus musculus, T-cell, read-out: 3H-Thymidine Incorporation (DNA Synthesis) Inhibition (%)
Source text: (§1) 2) The ^3 H-Thymidine Incorporation Test as described by Ju, S. T., Dorf, M. E. J. Immunol. 1985, 134, 3722. This test was used for monitoring cellular proliferation by monitoring DNA synthesis. The results are expressed as percent ^3 H-thymidine incorporation relative to an untreated control:
(§2) [% ^3 H-thymidine incorporation]=[cpm agent treated cells]/[cpm
(§3) where cpm=counts per minute. Treatments resulting in [% ^3 H-thymidine incorporation] of <50% are considered active.
(§4) The ^3 H-thymidine incorporation assay therefore measures the amount of DNA synthesis when the cells are in the "S" phase of the cell cycle, and is used to assess cell proliferation. Cancer cells, which have a very rapid cell cycle turnover, normally incorporate large amounts of tritium (^3 H) unless inhibited by an exogenous agent. […] While the trypan blue dye exclusion test is an indicator of cell death, the ^3 H-thymidine incorporation test indicates a cytostatic status (not necessarily cytotoxic) of the cell. As previously noted, this latter test was the primary screen used to guide the isolation to the active agent.
(§5) Each of these three fractions were then tested in the trypan blue and ^3 H-thymidine incorporation assays along with the original CsA as a control, against the LS cell line, which was the most sensitive of the cancer lines (Tables 3 and 4). […] The results of the trypan blue and ^3 H-thymidine incorporation assays against the three cell lines are compiled in Tables 5a-5f.

[2] = system: P815 cells (mastocytoma); assay: Trypan Blue cell viability, P815; assay type: cell-based; settings: Mus musculus, P815, read-out: Trypan Blue Cell Viability (%)
Source text: (§6) 1) The Trypan Blue Dye Exclusion Test for monitoring ceil viability as described by Phillips, H. J., in Tissue Culture Methods and Applications; Kruse, P. F., Jr., Patterson, M. K., Eds.; Academic Press, New York, 1973, 406, and by Wu, Y. W., Chik, L. L., Knazek, R. A. Cancer Research 1989, 49, 3754. The results of this assay are expressed as a percentage of viable cells:
(§7) [% viable cells]=[no. of alive cells]/[total no. of cells]×100
(§8) where the total no. cells=dead cells+alive cells. The results are compared directly with an untreated control, which typically show a three-to-four-fold increase for cancer cells, and a two-fold increase for normal cells. Treatments resulting in [% viable cells] of <30% are considered cytotoxic. Therefore, the trypan blue dye exclusion test was used to assess the number of dead and alive cells using various cell lines upon treatment with the crude and purified agent. This test provides a simple clue to the acute or late onset of a cytotoxic response. Readings for this and all other in vitro assays were taken 48 hours after treatment with the unpurified agent, and also […] after treatment for the purified agent. Thus, the trypan blue dye exclusion assay functions to confirm whether or not the cells were viable at the time readings were taken for other bioassays.

[3] = system: C7 cloned T-cells; assay: Trypan Blue cell viability, C7; assay type: cell-based; settings: Mus musculus, read-out: Trypan Blue Cell Viability (%)
Source text: as §6, §7, §8, §5

[4] = system: RDM-4 cells (type T lymphoma); assay: Trypan Blue cell viability, RDM-4; assay type: cell-based; settings: Mus musculus, read-out: Trypan Blue Cell Viability (%)
Source text: as §6, §7, §8
(§9) The final in vitro assays performed with the preferred purified active agent were intended to examine the scope of the activity in the trypan blue assay against a wider range of tumor cell lines (Tables 10 and 11). These cell lines included a […] lymphoma BW8767, a BW mutant which is more resistant than the BW cell lines used in other assays, as evidenced by the results in Tables 10 and 11.

[5] = system: LK lymphoma cells; assay: 3H-Thymidine Incorporation, LK; assay type: cell-based, mouse
Source text: as §1, §2, §3, §4
With the preferred purified active agent in hand, ^3 H-thymidine incorporation and trypan blue assays were initially performed at different dosages using LK and BW lymphoma ceil lines in order to confirm the activity of the preferred purified active agent, and to bracket the active concentration range for the preferred purified active agent. With a molecular weight of 328, a 1 μg/mL solution corresponds to 3 μM concentration. In addition, the time course of cell viability in the trypan blue assay was also monitored in order to best optimize subsequent assays to ensure that the cells were still viable at the time of measurement, and to ensure a nontoxic response of the cells to the agent. Toxicity of the agent would have been observed as cell death within 2 hours. The trypan blue assays (Table 7), run at 30 μM and 3 μM of purified agent (10 and 1 μg/mL, respectively), indicated excellent cell viability after 24 hours, though with a significant drop in viability after 48 hours at a 30 μM dose of preferred purified active agent. Consequently the results of the in vitro assays employing purified agent were all recorded after 24 hours. In the ^3 H-thymidine incorporation assay (Table 8), dosages ranging from 0.1 to 250 μg/mL were examined.

[6] = system: BW lymphoma cells; assay: 35S-Methionine Incorporation (protein synthesis), BW; assay type: cell-based; settings: Mus musculus; for activity at 1 µg/mL: 1 μg/mL; for activity at 10 µg/mL: 10 μg/mL
Source text: 3) ^35 S-Methionine Incorporation Test as described by Sorenson, C. M., Barry, M. A., Eastman, A. J. Natl. Canc. Inst. 1990, 82, 749. The results are expressed as percent ^35 S-methionine incorporation relative to an untreated control:
[% ^35 S-methionine incorporation]=[cpm agent treated cells]/[cpm
where cpm=counts per minute. Treatments resulting in [% ^35 S-methionine incorporation] of <50% are considered active.
The ^35 S-methionine incorporation test therefore measures protein synthesis. Activity in this bioassay could arise from inhibition of transcription and/or translation.
In this test, BW and LK lymphoma cells were treated with the preferred purified active agent at 1 μg/mL and 10 μg/mL for comparison with an untreated control. The treated cells were split into two groups, one of which was thoroughly washed to remove the preferred purified active agent prior to incubation with ^35 S-methionine.

[7] = system: BW8767 cells (BW resistant mutant); assay: Trypan Blue cell viability, BW8767; assay type: cell-based; settings: Mus musculus, read-out: Trypan Blue Cell Viability (%)
Source text: as §6, §7, §8, §9

[8] = system: RDM-4 cells (type T lymphoma); assay: 3H-Thymidine Incorporation, RDM-4; assay type: cell-based; settings: Mus musculus, read-out: 3H-Thymidine Incorporation (DNA Synthesis) Inhibition (%)
Source text: as §1, §2, §3, §4, §9

`CC1=C2C(=O)C=C(CO)[C@@H]2[C@H]2OC(=O)[C@@H](C)[C@@H]2[C@@H](O)C1` [11β,13-dihydrolactucin, 3,6-dimethyl-4-hydroxy-9-hydroxymethyl-3,3a,4,5,9a,9b-hexahydroazuleno[4,5-b]furan-2,7-dione] was tested, and the inhibition at 0.1 µg/mL ([1]; 0.1 μg/mL) was 100%, the inhibition at 0.5 µg/mL ([1]; 0.5 μg/mL) was 100% and the inhibition at 1 µg/mL ([1]; 1.0 μg/mL) was 100%. The inhibition at 10 µg/mL ([1]; 10 μg/mL) was 75%, the viability at 0.1 µg/mL [2] was 100% and the viability at 0.5 µg/mL [2] was 100%. It also gave a viability at 1 µg/mL [2] of 100%, a viability at 10 µg/mL [2] of 80% and a viability at 0.1 µg/mL [3] of 100%. It also gave a viability at 0.5 µg/mL [3] of 100%, a viability at 1 µg/mL [3] of 100% and a viability at 10 µg/mL [3] of 90%. For the same compound, the viability at 0.1 µg/mL [4] was 100%, the viability at 0.5 µg/mL [4] was 100% and the viability at 1 µg/mL [4] was 100%. The viability at 10 µg/mL [4] was 90%, the “ED50, 3H-thymidine incorporation” value [5] was “micromolar range” and the inhibition at 0.1 µg/mL ([5]; Mus musculus, 3 h, 0.1 μg/mL, read-out: 3H-Thymidine Incorporation (DNA Synthesis) Inhibition (%)) was 95%. It also gave an inhibition at 1 µg/mL ([5]; Mus musculus, 3 h, 1 μg/mL, read-out: 3H-Thymidine Incorporation (DNA Synthesis) Inhibition (%)) of 75%, an inhibition at 10 µg/mL ([5]; Mus musculus, 3 h, 10 μg/mL, read-out: 3H-Thymidine Incorporation (DNA Synthesis) Inhibition (%)) of 5% and an inhibition at 25 µg/mL ([5]; Mus musculus, 3 h, 25 μg/mL, read-out: 3H-Thymidine Incorporation (DNA Synthesis) Inhibition (%)) of 2%. It also gave an inhibition at 100 µg/mL ([5]; Mus musculus, 3 h, 100 μg/mL, read-out: 3H-Thymidine Incorporation (DNA Synthesis) Inhibition (%)) of 2%, an inhibition at 250 µg/mL ([5]; Mus musculus, 3 h, 250 μg/mL, read-out: 3H-Thymidine Incorporation (DNA Synthesis) Inhibition (%)) of 2% and an activity at 1 µg/mL ([6]; BW (washed)) of 100%. For the same compound, the activity at 10 µg/mL ([6]; BW (washed)) was 100%, the activity at 1 µg/mL ([6]; BW, unwashed) was 10% and the activity at 10 µg/mL ([6]; BW, unwashed) was 2%. The viability at 0.1 µg/mL [7] was 100%, the viability at 0.5 µg/mL [7] was 100% and the viability at 1 µg/mL [7] was 100%. The viability at 10 µg/mL [7] was 100%, the inhibition at 0.1 µg/mL ([8]; 0.1 μg/mL) was 100% and the inhibition at 0.5 µg/mL ([8]; 0.5 μg/mL) was 100%. The inhibition at 1 µg/mL ([8]; 1.0 μg/mL) was 80% and the inhibition at 10 µg/mL ([8]; 10 μg/mL) was 60%.
